Data on 3 molecules can be found in patent US20010024657A1, “Pharmaceutical oral patch for controlled release of pharmaceutical agents in the oral cavity” (priority 1997, published 2001).

The structures appear in SMILES notation. “Also recorded” adds a separate entry of the source.

The conditions of data set [1]: cited from earlier work; for solubility in buffer (in words): neutral to slightly basic, pH 7-8, high buffering capacity.
Data set [2] in a line: In vivo release of clotrimazole from patches on the upper teeth, measured in saliva of volunteers. Details: species or system human. The settings on record: total dose of 10 mg clotrimazole from patches. How it is done: Each volunteer attached two pharmaceutical oral patches of 5 mg clotrimazole to the buccal side of the upper teeth. No food or drink was allowed during the tests. Saliva samples were expectorated at given time intervals and tested for clotrimazole by HPLC. The patch was affixed to the tooth by using a drop of a solution of Eudragit S™ in ethanol.
The in vivo release from the patches made from three formulations of differing molar ratios of NaOH were tested in vivo. Formulation 193-5 has a low level of NaOH (percent molar ratio of 11.5%) and the patch made therefrom is expected to release drug even more slowly than the patch made from formulation 193-34.

On to `CC(C(=O)O)c1ccc(-c2ccccc2)c(F)c1` (stereo not drawn) [flurbiprofen], for which, in data set [1], the “solubility in buffer (in words)” value is recorded as “soluble in buffer” and the “solubility in water (in words)” value is on record as “poorly soluble in water; also recorded: only slightly soluble”.
As for `Clc1ccccc1C(c1ccccc1)(c1ccccc1)n1ccnc1` [clotrimazole, Clotrimazole], in data set [1], the “solubility in water (in words)” value is recorded as “poorly water soluble”. Further, the “time of clinically significant levels of clotrimazole in saliva” value in data set [2] is recorded as “at least 6 hours”.
Take `O=C([O-])c1ccccc1O.[Na+]` [sodium salicylate]: in data set [1], the “solubility in buffer (in words)” value was “very soluble” and the “solubility in water (in words)” value is given as “very soluble”.
